These results are taken from US9540330B2, “Oligomer-containing hydantoin compounds” (Nektar Therapeutics, priority 2010, dated 2017).

In general, IC50 refers to the concentration at which inhibition is half-maximal.

Structures are written as SMILES. A value given as a limit tells only on which side of the number the result lay.

Assay [1] deals with sodium channels in isolated cardiac cells (human atrial myocytes) (Homo sapiens, UniProt Q14524). The assay is described as follows: Sodium current (INa) block in isolated human atrial myocytes, whole-cell patch clamp. The format is cell-based. The following applies: pacing rates 0.1, 1 and 3 Hz, FIG. 2. Here is the method: Phenyloin and compounds prepared in accordance with Example 1 were evaluated in vitro to determine their ability to block sodium channels in isolated cardiac cells (human atrial myocytes) using the whole-cell patch clamp method
sodium channels in isolated cardiac cells (human atrial myocytes), sequence (Q14524 whole entry): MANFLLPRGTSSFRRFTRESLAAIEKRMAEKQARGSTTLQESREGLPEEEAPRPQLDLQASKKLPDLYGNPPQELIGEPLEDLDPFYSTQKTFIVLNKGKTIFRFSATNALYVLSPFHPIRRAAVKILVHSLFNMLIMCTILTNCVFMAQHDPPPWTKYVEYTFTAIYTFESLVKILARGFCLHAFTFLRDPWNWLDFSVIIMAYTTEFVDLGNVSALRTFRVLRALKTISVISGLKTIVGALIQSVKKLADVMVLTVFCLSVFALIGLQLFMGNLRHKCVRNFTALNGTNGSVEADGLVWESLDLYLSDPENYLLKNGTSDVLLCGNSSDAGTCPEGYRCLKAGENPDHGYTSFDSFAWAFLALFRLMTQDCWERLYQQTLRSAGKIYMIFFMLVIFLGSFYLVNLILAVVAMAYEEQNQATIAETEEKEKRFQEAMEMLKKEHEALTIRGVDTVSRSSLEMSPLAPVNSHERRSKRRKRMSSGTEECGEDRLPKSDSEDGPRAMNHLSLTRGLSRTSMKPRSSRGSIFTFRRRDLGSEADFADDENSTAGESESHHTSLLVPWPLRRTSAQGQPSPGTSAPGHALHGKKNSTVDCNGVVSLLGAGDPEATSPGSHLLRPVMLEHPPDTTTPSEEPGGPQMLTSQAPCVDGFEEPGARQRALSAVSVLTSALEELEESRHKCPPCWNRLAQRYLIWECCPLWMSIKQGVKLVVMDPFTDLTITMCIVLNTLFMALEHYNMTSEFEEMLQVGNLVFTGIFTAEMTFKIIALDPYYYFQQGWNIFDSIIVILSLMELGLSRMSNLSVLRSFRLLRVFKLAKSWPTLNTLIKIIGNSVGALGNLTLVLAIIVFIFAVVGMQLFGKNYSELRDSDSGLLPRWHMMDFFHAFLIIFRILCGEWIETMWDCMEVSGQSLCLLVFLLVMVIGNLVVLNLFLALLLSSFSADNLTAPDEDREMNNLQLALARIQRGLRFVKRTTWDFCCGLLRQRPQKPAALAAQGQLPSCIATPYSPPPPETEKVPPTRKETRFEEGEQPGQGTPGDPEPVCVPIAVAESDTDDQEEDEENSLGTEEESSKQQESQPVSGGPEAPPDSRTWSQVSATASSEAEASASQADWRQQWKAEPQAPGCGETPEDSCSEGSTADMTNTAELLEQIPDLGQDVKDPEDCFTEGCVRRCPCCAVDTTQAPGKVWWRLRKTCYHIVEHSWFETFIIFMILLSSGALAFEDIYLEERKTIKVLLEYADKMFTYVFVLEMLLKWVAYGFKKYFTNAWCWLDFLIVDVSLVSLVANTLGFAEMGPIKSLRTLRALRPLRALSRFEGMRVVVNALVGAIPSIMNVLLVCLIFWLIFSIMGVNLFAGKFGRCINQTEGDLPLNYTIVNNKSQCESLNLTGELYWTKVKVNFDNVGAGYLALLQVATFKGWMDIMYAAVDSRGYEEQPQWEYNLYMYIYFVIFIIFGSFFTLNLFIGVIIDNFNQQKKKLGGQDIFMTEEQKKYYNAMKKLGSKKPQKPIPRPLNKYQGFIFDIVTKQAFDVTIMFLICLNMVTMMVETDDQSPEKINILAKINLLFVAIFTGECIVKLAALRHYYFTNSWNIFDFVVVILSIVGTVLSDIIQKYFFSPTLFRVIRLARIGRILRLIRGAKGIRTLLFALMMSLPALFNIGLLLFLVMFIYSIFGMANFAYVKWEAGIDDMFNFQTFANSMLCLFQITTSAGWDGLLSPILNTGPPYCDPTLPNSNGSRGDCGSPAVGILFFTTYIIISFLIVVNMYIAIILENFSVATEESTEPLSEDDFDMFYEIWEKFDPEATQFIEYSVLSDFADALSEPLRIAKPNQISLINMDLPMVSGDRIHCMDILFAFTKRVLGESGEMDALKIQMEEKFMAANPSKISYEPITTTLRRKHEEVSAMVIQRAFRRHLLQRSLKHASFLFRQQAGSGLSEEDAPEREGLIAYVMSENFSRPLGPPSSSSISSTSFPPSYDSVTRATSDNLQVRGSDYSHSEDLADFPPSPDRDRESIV
Human myocytes were obtained from specimens of human right atrial appendages obtained during surgery from hearts of patients undergoing cardiopulmonary bypass surgery. The procedure produced rod-shaped, ion tolerant cells which were used within 24 hours after isolation. See Crumb et al. (1995) Am J Physiol 268:H1335-H1342. […]
After rupture of the cell membrane (entering whole-cell mode), current kinetics and amplitudes were allowed to stabilize as the cell was dialyzed with internal solution and paced at 3 Hz (3-5 minutes). Sodium current (INa) was measured using a voltage pulse to −20 mV (40 ms pulse duration) from a holding potential of −80 mV. Peak inward current was measured for INa. […]
Currents and voltages were recorded with patch-clamp amplifiers (Axopatch 1-B, Axon Instruments). […] Data was presented as % reduction of current amplitude, measured as current reduction after a steady-state effect had been reached in the presence of test article relative to current amplitude before introduction of test article (control). […]
A general note: The patch-clamp technique gives a direct electrical read-out from membranes.

The target in assay [2] is T1, cloned human hERG channel (Homo sapiens, UniProt Q12809).
T1 construct: expressed in transfected cells; host or cells: HEK cells
T1 sequence (Q12809 whole entry): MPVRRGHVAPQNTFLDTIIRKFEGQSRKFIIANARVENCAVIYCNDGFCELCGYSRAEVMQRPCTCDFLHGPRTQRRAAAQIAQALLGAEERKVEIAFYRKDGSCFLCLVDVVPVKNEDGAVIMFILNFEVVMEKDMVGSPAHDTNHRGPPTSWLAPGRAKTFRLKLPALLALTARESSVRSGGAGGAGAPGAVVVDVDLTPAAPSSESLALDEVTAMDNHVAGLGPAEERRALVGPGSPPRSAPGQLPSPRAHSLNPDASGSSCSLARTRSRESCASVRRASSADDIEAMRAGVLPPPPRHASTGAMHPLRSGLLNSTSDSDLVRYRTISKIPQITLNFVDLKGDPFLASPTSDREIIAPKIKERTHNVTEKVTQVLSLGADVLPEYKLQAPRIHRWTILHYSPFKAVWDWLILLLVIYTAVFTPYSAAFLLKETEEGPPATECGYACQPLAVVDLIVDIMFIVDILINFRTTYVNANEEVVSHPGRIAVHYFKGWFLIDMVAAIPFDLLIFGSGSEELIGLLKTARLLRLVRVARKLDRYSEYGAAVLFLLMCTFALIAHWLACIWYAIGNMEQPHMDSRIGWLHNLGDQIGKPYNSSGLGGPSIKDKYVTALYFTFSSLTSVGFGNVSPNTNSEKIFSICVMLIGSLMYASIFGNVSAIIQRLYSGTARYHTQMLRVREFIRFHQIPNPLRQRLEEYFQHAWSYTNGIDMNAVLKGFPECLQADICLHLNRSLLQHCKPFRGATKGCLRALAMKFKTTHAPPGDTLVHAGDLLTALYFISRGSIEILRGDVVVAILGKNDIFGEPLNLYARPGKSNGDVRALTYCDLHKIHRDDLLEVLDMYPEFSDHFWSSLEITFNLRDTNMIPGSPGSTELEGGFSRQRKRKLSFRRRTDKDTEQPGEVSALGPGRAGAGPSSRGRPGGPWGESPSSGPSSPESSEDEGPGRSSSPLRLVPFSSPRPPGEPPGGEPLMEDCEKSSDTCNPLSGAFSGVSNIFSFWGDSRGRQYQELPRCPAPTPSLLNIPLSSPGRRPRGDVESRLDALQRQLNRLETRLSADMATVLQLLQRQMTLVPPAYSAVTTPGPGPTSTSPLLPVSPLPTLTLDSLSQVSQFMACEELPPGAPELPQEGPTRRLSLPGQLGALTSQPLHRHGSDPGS
The assay can be described thus: hERG current block in HEK cells, whole-cell patch clamp. It counts as cell-based. The note with it: HEK cells expressing cloned human hERG channel, 37±1° C., peak current at −40 mV; read-out: hERG (μM), IC50 for inhibition of hERG. Here is the method: Electrophysiological measurements of hERG current were made in vitro to assess the hERG block produced by the phenyloin conjugates. hERG currents were measured in HEK cells expressing the cloned human hERG channel using the whole-cell variant of the patch clamp method. Experiments were performed at 37±1° C. hERG current was elicited by a step pulse to +10 mV for 500 ms from a holding potential of −75 mV, followed by a pulse to −40 mV for 500 ms. Peak current was measured from the pulse to −40 mV. Six concentrations of each test compound were added to the cell in a cumulative manner starting with the lowest test concentration. Each cell served as its own control and data are presented as % reduction of current amplitude achieved in the presence of drug.

As for `O=C1NC(=O)C(c2ccccc2)(c2ccccc2)N1` [Phenytoin, 5,5-diphenylhydantoin], the “frequency-dependence of sodium channel block (in words)” value in assay [1] was “frequency-dependent block of sodium channels”.
With `COCCOCCOCCOCCN1C(=O)NC(=O)C1(c1ccccc1)c1ccccc1` [mPEG4-N-Phenytoin], the IC50 in assay [2] was 88.9 µM.
Still for that read-out and setting: next, `COCCOCCOCCOCCOCCN1C(=O)NC(=O)C1(c1ccccc1)c1ccccc1` [mPEG5-N-Phenytoin]: more than 100 µM.
Still for that read-out and setting: then `COCCOCCOCCOCCOCCOCCOCCN1C(=O)NC(=O)C1(c1ccccc1)c1ccccc1` [mPEG7-N-Phenytoin], with more than 100 µM.
